Patent US20020162128A1, “Non-human animal deficient in function of pituitary adenylate cyclase-activating polypeptide gene” (priority 2000, published 2002)

What was measured:
Type in all cases: in vivo, mouse
wild-type mice = test: Effect of haloperidol on locomotor activity in the open field; settings: haloperidol 0.2 mg/kg intraperitoneally, 20 min before 90 min test, versus vehicle
Description: (§1) Motor activity was quantified using an automated video-tracking system, the video image motion analyzer AXIS-90 (Neuroscience, Inc., Tokyo, Japan). A computer program was used to overlay grid lines defining 25 separate regions within a circular open field (60 cm in diameter, 30 cm deep, illuminated with white light, 100 lux). Paths taken by each mouse were stored permanently as x-y coordinate sequences, and parameters indicative of locomotor activity were assessed. Vertical activity (rearing and jumping) were also scored. In the haloperidol study, the drug was injected intraperitoneally 20 min prior to monitoring locomotor activity, which was measured for 90 min by another activity-monitoring system, Supermex (multi-channel system; Muromachi Kikai Co., Ltd., Tokyo, Japan). Subsequently, the same mice were tested for catalepsy in the bar test as previously described in Boulay, D., Depoortere, R., Oblin, A., Sanger, D. J., Schoemaker, H. & Perrault, G. (2000) Eur. J. Pharmacol. 391, 63-73.
(§2) Effects of haloperidol on locomotor activity. (A) PACAP+/+and PACAP−/− mice (n =6-7) were injected intraperitoneally with 0.2 and 2 mg/kg haloperidol or vehicle (0.5% carboxymethyl cellulose sodium) and 20 min later placed in the open field for automated measurement of locomotor parameters over a 90 min test period. (B) Subsequently, each mouse was tested for catalepsy in the bar test. […]

PACAP−/− mice [1] = test: Catalepsy in the bar test after haloperidol; settings: haloperidol 0.2 and 2 mg/kg intraperitoneally; PACAP−/− mice compared with wild-type mice
Description: as §1, §2

PACAP−/− mice [2] = test: Effect of haloperidol on locomotor hyperactivity in the open field; settings: haloperidol 0.2 mg/kg intraperitoneally, 20 min before 90 min test, versus vehicle
Description: as §1, §2

O=C(CCCN1CCC(O)(c2ccc(Cl)cc2)CC1)c1ccc(F)cc1 [Haloperidol, haloperidol]
impairment of locomotor activity (total activity) (wild-type mice): 43±21 % reduction
cataleptogenic effect (bar test) (PACAP−/− mice [1]): quite similar to that in wild-type mice
reduction of hyperactivity (total locomotor activity) (PACAP−/− mice [2]): 65±10 % reduction
